ChEMBL document CHEMBL1123926, “Synthesis and neuroleptic activity of a series of 1-[1-(benzo-1,4-dioxan-2-ylmethyl)-4-piperidinyl]benzim idazolone derivatives” (J Med Chem, 1987)

How the values were obtained:
D(2) dopamine receptor [1] = target: T1, D(2) dopamine receptor (Bos taurus, UniProt P20288); test: Displacement of [3H]spiroperidol from bovine caudate nucleus membrane Dopamine receptor D2
Rattus norvegicus = species: Rattus norvegicus; test: Cataleptogenic activity was evaluated for the compound as the 50% effective dose required to induce cataleptic effect in rats; type: functional
[2] = Therapeutic ratio of ED50 of catalepsy in rats to ED50 of climbing in mouse; type: ADME, organism-based; conditions: rat and mouse, in vivo
Mus musculus [3] = test: Neuroleptic activity determined by its inhibitory effect on apomorphine-induced climbing behavior in mice by intraperitoneal administration. Range is 0.008-0.766; type: functional; conditions: ip
[4] = target: Dopamine receptor (Mus musculus) (UniProt P51436+Q8BLD9+Q61616+P61168+P30728); test: Neuroleptic activity determined by its inhibitory effect on apomorphine-induced climbing behavior in mice by intraperitoneal administration; type: functional, organism-based
Mus musculus [5] = test: Neuroleptic activity determined by its inhibitory effect on apomorphine-induced climbing behavior in mice by intraperitoneal administration. Range is 0.03-0.064; type: functional; conditions: ip
Mus musculus [6] = test: Neuroleptic activity determined by its inhibitory effect on apomorphine-induced climbing behavior in mice by intraperitoneal administration. Range is 0.037-0.256; type: functional; conditions: ip
Mus musculus [7] = test: Neuroleptic activity determined by its inhibitory effect on apomorphine-induced climbing behavior in mice by peroral administration in experiment 1.Range is 0.02-0.42; type: functional; conditions: po
Mus musculus [8] = test: Neuroleptic activity determined by its inhibitory effect on apomorphine-induced climbing behavior in mice by intraperitoneal administration in experiment 2. Range is 0.11-0.41; type: functional; conditions: ip
[9] = Therapeutic ratio of ED50 of catalepsy to ED50 of climbing in […]; type: ADME
D(2) dopamine receptor [10] = target: T1, D(2) dopamine receptor; test: Binding affinity towards dopamine receptor D2 was determined by displacement of [3H]spiroperidol from bovine nucleus caudate membranes.
Mus musculus [11] = test: Neuroleptic activity determined by its inhibitory effect on apomorphine-induced climbing behavior in mice by intraperitoneal administration. Range is 0.071-0.206; type: functional; conditions: ip
Mus musculus [12] = test: Neuroleptic activity determined by its inhibitory effect on apomorphine-induced climbing behavior in mice by intraperitoneal administration. Range is 0.040-0.075; type: functional; conditions: ip
Mus musculus [13] = test: Neuroleptic activity determined by its inhibitory effect on apomorphine-induced climbing behavior in mice by intraperitoneal administration. Range is 0.019-0.092; type: functional; conditions: ip
Mus musculus [14] = test: Neuroleptic activity determined by its inhibitory effect on apomorphine-induced climbing behavior in mice by intraperitoneal administration. Range is between 0.035-0.192; type: functional; conditions: ip
Mus musculus [15] = test: Neuroleptic activity determined by its inhibitory effect on apomorphine-induced climbing behavior in mice by intraperitoneal administration. Range is 0.009-0.109; type: functional; conditions: ip
Mus musculus [16] = test: Neuroleptic activity determined by its inhibitory effect on apomorphine-induced climbing behavior in mice by intraperitoneal administration. Range is 0.007-0.029; type: functional; conditions: ip
Mus musculus [17] = species: Mus musculus; test: animal or person; conditions: ip
Description: Neuroleptic activity determined by its inhibitory effect on apomorphine-induced climbing behavior in mice by intraperitoneal administration in experiment 2 Range is 0.05-0.17

Mus musculus [18] = test: Neuroleptic activity determined by its inhibitory effect on apomorphine-induced climbing behavior in mice by peroral administration; type: functional; conditions: po
Mus musculus [19] = test: Neuroleptic activity determined by its inhibitory effect on apomorphine-induced climbing behavior in mice by intraperitoneal administration. Range is 0.007-0.250; type: functional; conditions: ip
Mus musculus [20] = test: Neuroleptic activity determined by its inhibitory effect on apomorphine-induced climbing behavior in mice by intraperitoneal administration. Range is between 0.0033-0.278; type: functional; conditions: ip
Mus musculus [21] = test: Neuroleptic activity determined by its inhibitory effect on apomorphine-induced climbing behavior in mice by intraperitoneal administration. Range is between 0.009-0.037; type: functional; conditions: ip

T1 sequence (P20288 whole entry): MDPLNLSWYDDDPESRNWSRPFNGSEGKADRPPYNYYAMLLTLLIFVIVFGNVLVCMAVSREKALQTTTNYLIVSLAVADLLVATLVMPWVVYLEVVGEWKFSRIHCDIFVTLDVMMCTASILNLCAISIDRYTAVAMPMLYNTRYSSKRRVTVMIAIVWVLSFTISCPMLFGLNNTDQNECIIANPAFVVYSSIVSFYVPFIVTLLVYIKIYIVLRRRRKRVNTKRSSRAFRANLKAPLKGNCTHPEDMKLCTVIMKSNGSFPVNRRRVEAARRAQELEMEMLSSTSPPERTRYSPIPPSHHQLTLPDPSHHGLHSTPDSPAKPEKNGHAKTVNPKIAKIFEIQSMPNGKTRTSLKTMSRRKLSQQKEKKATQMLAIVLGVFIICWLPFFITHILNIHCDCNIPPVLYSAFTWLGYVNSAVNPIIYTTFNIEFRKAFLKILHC

| Structure (SMILES) | ED50 (Rattus norvegicus) [mg/kg] | ED50 [4] [mg/kg] | other results |
| --- | --- | --- | --- |
| Cc1ccc2c(c1)nc(O)n2C1CCN(CC2COc3cc(C)c(C)cc3O2)CC1 (configuration not stated) | 10 | – | Ki (D(2) dopamine receptor [1]): 45 nM; selectivity ratio [2]: 126; ED50 (Mus musculus [3]): 0.079 mg/kg |
| Cc1ccc2c(c1)nc(O)n2C1CCN(CC2COc3cc(F)ccc3O2)CC1 (configuration not stated) | – | 0.5 | – |
| Oc1nc2cc(F)ccc2n1C1CCN(CC2COc3ccc(Cl)cc3O2)CC1 (configuration not stated) | – | – | ED50 (Mus musculus [5]): 0.044 mg/kg |
| Oc1nc2cccc(Cl)c2n1C1CCN(CC2COc3ccc(F)cc3O2)CC1 (configuration not stated) | – | > 25 | – |
| Oc1nc2cc(F)ccc2n1C1CCN(CC2COc3cc(Cl)c(Cl)cc3O2)CC1 (configuration not stated) | – | 5.5 | – |
| O=c1[nH]c2cc(F)ccc2n1C1CCN(CC2COc3cc(F)ccc3O2)CC1 (configuration not stated) | – | – | Ki (D(2) dopamine receptor [1]): 70 nM; selectivity ratio [2]: < 8 |
| Oc1nc2cc(Cl)ccc2n1C1CCN(CC2COc3cc(F)ccc3O2)CC1 (configuration not stated) | – | 0.2 | – |
| Oc1nc2cc(C(F)(F)F)ccc2n1C1CCN(CC2COc3ccccc3O2)CC1 (configuration not stated) | – | > 10 | – |
| Oc1nc2cc(F)ccc2n1C1CCN(CC2COc3ccc(F)cc3O2)CC1 (configuration not stated) | 20 | – | ED50 (Mus musculus [6]): 0.098 mg/kg; selectivity ratio [2]: 204 |
| Oc1nc2cc(Cl)c(Cl)cc2n1C1CCN(CC2COc3ccccc3O2)CC1 (configuration not stated) | – | 0.45 | – |
| CC(C)(C)c1ccc2c(c1)nc(O)n2C1CCN(CC2COc3ccccc3O2)CC1 (configuration not stated) | – | > 25 | – |
| Oc1nc2cccnc2n1C1CCN(CC2COc3ccccc3O2)CC1 (configuration not stated) | – | > 10 | – |
| Oc1nc2ccc(Cl)cc2n1C1CCN(CC2COc3ccc(F)cc3O2)CC1 (configuration not stated) | – | 0.16 | – |
| O=c1[nH]c2cc(Cl)ccc2n1C1CCN(CC2COc3ccccc3O2)CC1 (configuration not stated) [AXAMOZIDE] | > 40 | – | Ki (D(2) dopamine receptor [1]): 30 nM; selectivity ratio [2]: > 444; ED50 (Mus musculus [7]): 0.09 mg/kg; ED50 (Mus musculus [8]): 0.21 mg/kg |
| Oc1nc2cc(C(F)(F)F)ccc2n1C1CCN(CC2COc3ccc(F)cc3O2)CC1 (configuration not stated) | – | > 10 | – |
| Cc1ccc2c(c1)nc(O)n2C1CCN(CC2COc3ccc(Cl)cc3O2)CC1 (configuration not stated) | 1 | 0.093 | selectivity ratio [9]: 11; Ki (D(2) dopamine receptor [10]): 30 nM |
| Oc1nc2cc(F)ccc2n1C1CCN(CC2COc3cc(F)ccc3O2)CC1 (configuration not stated) | < 5 | 0.63 | – |
| Cc1cccc2c1OCC(CN1CCC(n3c(O)nc4cc(Cl)ccc43)CC1)O2 (configuration not stated) | – | 1.3 | – |
| Oc1nc2cc(-c3ccccc3)ccc2n1C1CCN(CC2COc3ccccc3O2)CC1 (configuration not stated) | – | > 25 | – |
| Cc1ccc2c(c1)OCC(CN1CCC(n3c(O)nc4cc(Cl)ccc43)CC1)O2 (configuration not stated) | 20 | – | Ki (D(2) dopamine receptor [1]): 60 nM; ED50 (Mus musculus [11]): 0.121 mg/kg; selectivity ratio [2]: 165 |
| Oc1nc2ccccc2n1C1CCN(CC2COc3ccccc3O2)CC1 (configuration not stated) | – | 0.7 | – |
| Oc1nc2cc(Cl)c(Cl)cc2n1C1CCN(CC2COc3ccc(F)cc3O2)CC1 (configuration not stated) | – | 1.4 | – |

| Structure (SMILES) | ED50 (Rattus norvegicus) [mg/kg] | ED50 [4] [mg/kg] | other results |
| --- | --- | --- | --- |
| Cc1cc2c(cc1C)OC(CN1CCC(n3c(O)nc4cc(F)ccc43)CC1)CO2 (configuration not stated) | > 20 | – | Ki (D(2) dopamine receptor [1]): 25 nM; selectivity ratio [2]: > 363; ED50 (Mus musculus [12]): 0.055 mg/kg |
| Cc1c(Cl)ccc2nc(O)n(C3CCN(CC4COc5ccccc5O4)CC3)c12 (configuration not stated) | – | 10 | – |
| Cc1cccc2c1OCC(CN1CCC(n3c(O)nc4cc(F)ccc43)CC1)O2 (configuration not stated) | 8 | – | Ki (D(2) dopamine receptor [1]): 8 nM; ED50 (Mus musculus [13]): 0.043 mg/kg; selectivity ratio [2]: 186 |
| CCc1ccc2c(c1)nc(O)n2C1CCN(CC2COc3ccccc3O2)CC1 (configuration not stated) | – | 0.17 | – |
| Oc1nc2cccc(Cl)c2n1C1CCN(CC2COc3ccccc3O2)CC1 (configuration not stated) | – | > 20 | – |
| Cc1cc2c(cc1C)OC(CN1CCC(n3c(O)nc4cc(Cl)ccc43)CC1)CO2 (configuration not stated) | – | 0.8 | – |
| Nc1ccc2c(c1)nc(O)n2C1CCN(CC2COc3ccccc3O2)CC1 (configuration not stated) | – | 3.9 | – |
| Oc1nc2cc(Br)ccc2n1C1CCN(CC2COc3ccccc3O2)CC1 (configuration not stated) | 20 | – | Ki (D(2) dopamine receptor [1]): 70 nM; ED50 (Mus musculus [14]): 0.082 mg/kg; selectivity ratio [2]: 244 |
| Cc1ccc2c(c1)OCC(CN1CCC(n3c(O)nc4cc(C)ccc43)CC1)O2 (configuration not stated) | 6 | – | Ki (D(2) dopamine receptor [1]): 40 nM; ED50 (Mus musculus [15]): 0.032 mg/kg; selectivity ratio [2]: 188 |
| Oc1nc2cc(Cl)ccc2n1C1CCN(CC2COc3ccc(Cl)cc3O2)CC1 (configuration not stated) | – | 0.75 | – |
| Oc1nc2cccnc2n1C1CCN(CC2COc3ccc(F)cc3O2)CC1 (configuration not stated) | – | > 25 | – |
| Cc1ccc2c(c1)nc(O)n2C1CCN(CC2COc3ccc(F)cc3O2)CC1 (configuration not stated) | 2.5 | – | Ki (D(2) dopamine receptor [1]): 150 nM; selectivity ratio [2]: 187; ED50 (Mus musculus [16]): 0.014 mg/kg |
| Oc1nc2ccc(Cl)cc2n1C1CCN(CC2COc3ccccc3O2)CC1 (configuration not stated) | – | 0.11 | – |
| O=C(CCCN1CCC(O)(c2ccc(Cl)cc2)CC1)c1ccc(F)cc1 [HALOPERIDOL] | 0.5 | – | ED50 (Mus musculus [17]): 0.09 mg/kg |
| Oc1nc2cc(Cl)ccc2n1C1CCN(CC2COc3ccc(F)cc3O2)CC1 (configuration not stated) | – | – | ED50 (Mus musculus [18]): 0.14 mg/kg |
| Cc1ccc2c(c1)nc(O)n2C1CCN(CC2COc3ccccc3O2)CC1 (configuration not stated) | 40 | – | Ki (D(2) dopamine receptor [1]): 120 nM; ED50 (Mus musculus [19]): 0.013 mg/kg; selectivity ratio [2]: 3080 |
| COc1ccc2c(c1)nc(O)n2C1CCN(CC2COc3ccccc3O2)CC1 (configuration not stated) | 1 | – | Ki (D(2) dopamine receptor [1]): 150 nM; ED50 (Mus musculus [20]): 0.0096 mg/kg; selectivity ratio [2]: 104 |
| Oc1nc2cc(F)ccc2n1C1CCN(CC2COc3ccccc3O2)CC1 (configuration not stated) | – | – | ED50 (Mus musculus [21]): 0.019 mg/kg |
| Oc1nc2cc(Cl)ccc2n1C1CCN(CC2COc3cc(Cl)c(Cl)cc3O2)CC1 (configuration not stated) | – | 6 | – |
| Cc1c(Cl)ccc2nc(O)n(C3CCN(CC4COc5ccc(F)cc5O4)CC3)c12 (configuration not stated) | – | > 25 | – |
| Cc1ccc2c(c1)nc(O)n2C1CCN(CC2COc3cc(Cl)c(Cl)cc3O2)CC1 (configuration not stated) | – | 3.6 | – |
